Laboratory results as given in the NIST ThermoML archive (doi:10.1016/j.jct.2005.04.009).
± gives the expanded uncertainty stated by the source.

Tests used:
[1] = 101.33 kPa, Liquid, Alternating current cell with electrodes
[2] = wn = mass fraction of the nth substance listed; conditions: 100 kPa, Liquid, Alternating current cell with electrodes

Structure (SMILES) | electrical conductivity ([1]; 288.15 K) | electrical conductivity ([1]; 293.15 K) | electrical conductivity ([1]; 298.15 K) | electrical conductivity ([1]; 308.15 K) | electrical conductivity ([1]; 323.15 K) | electrical conductivity ([2]; 288.15 K, w2 = 1e-05) | electrical conductivity ([2]; 288.15 K, w2 = 8e-05) | electrical conductivity ([2]; 288.15 K, w2 = 0.00102) | electrical conductivity ([2]; 288.15 K, w2 = 0.00885) | electrical conductivity ([2]; 293.15 K, w2 = 1e-05) | electrical conductivity ([2]; 293.15 K, w2 = 8e-05) | electrical conductivity ([2]; 293.15 K, w2 = 0.00102) | electrical conductivity ([2]; 293.15 K, w2 = 0.00885) | electrical conductivity ([2]; 298.15 K, w2 = 1e-05) | electrical conductivity ([2]; 298.15 K, w2 = 8e-05) | electrical conductivity ([2]; 298.15 K, w2 = 0.00102) | electrical conductivity ([2]; 298.15 K, w2 = 0.00885)
CCn1cc[n+](C)c1.O=S(=O)([N-]S(=O)(=O)C(F)(F)F)C(F)(F)F | 0.644 ± 0.02 S/m | 0.773 ± 0.02 S/m | 0.912 ± 0.02 S/m | 1.23 ± 0.02 S/m | 1.79 ± 0.02 S/m | – | – | – | – | – | – | – | – | – | – | – | –
CCCC[n+]1ccn(C)c1.O=S(=O)([N-]S(=O)(=O)C(F)(F)F)C(F)(F)F + O | – | – | – | – | – | 0.265 ± 0.02 S/m | 0.266 ± 0.02 S/m | 0.277 ± 0.02 S/m | 0.365 ± 0.021 S/m | 0.331 ± 0.02 S/m | 0.332 ± 0.02 S/m | 0.345 ± 0.02 S/m | 0.449 ± 0.021 S/m | 0.406 ± 0.02 S/m | 0.408 ± 0.02 S/m | 0.422 ± 0.02 S/m | 0.542 ± 0.022 S/m
CCCCn1cc[n+](C)c1.F[P-](F)(F)(F)(F)F [1-butyl-3-methylimidazolium hexafluorophosphate] | 0.079 ± 0.02 S/m | 0.109 ± 0.02 S/m | 0.146 ± 0.02 S/m | 0.247 ± 0.02 S/m | 0.477 ± 0.02 S/m | – | – | – | – | – | – | – | – | – | – | – | –
CCCCCC[n+]1ccn(C)c1.O=S(=O)([N-]S(=O)(=O)C(F)(F)F)C(F)(F)F | 0.135 ± 0.02 S/m | 0.173 ± 0.02 S/m | 0.218 ± 0.02 S/m | 0.327 ± 0.02 S/m | 0.546 ± 0.02 S/m | – | – | – | – | – | – | – | – | – | – | – | –
CCCC[n+]1ccn(C)c1.O=S(=O)([N-]S(=O)(=O)C(F)(F)F)C(F)(F)F | 0.265 ± 0.02 S/m | 0.331 ± 0.02 S/m | 0.406 ± 0.02 S/m | 0.585 ± 0.02 S/m | 0.924 ± 0.02 S/m | – | – | – | – | – | – | – | – | – | – | – | –
